Experimental data reported in patent US11109593B2, “Isoxazolin-5-one derivative and herbicide containing same as active ingredient” (HOKKO CHEMICAL INDUSTRY CO., LTD., priority 2017, dated 2021).

How the values were obtained:
Type in all cases: in vivo
[1] = tested on: broad leaf weeds (Lindernia pyxidaria and Monochoria vaginalis); assay: Test Example 1: herbicidal effect test by treatment of rice paddy soil (immediately after seeding)
Summary of the method: (§1)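 Flooded paddy pot test in a glass greenhouse: emulsion diluted in water, dropped at 120 g a.i. per 10 ares just after sowing, water depth kept about 3 cm. Dry-weight reduction relative to untreated plants is scored at 14 days.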

[2] = tested on: Echinochloa crus-galli; assay: as above
Summary of the method: as §1

[3] = tested on: Scirpus juncoides; assay: as above
Summary of the method: as §1

[4] = tested on: Amaranthus viridis; assay: Test Example 3: herbicidal effect test by treatment of dry field farming soil (one day after seeding); details: 120 g/10a active ingredient, evaluated 14 days after treatment
Method: (§2) This test was conducted in a double system per one agent solution concentration area, and the herbicidal rates (%) were determined by the following equation (Math. 1) on 14 days after the treatment with the agents. Herbicidal Rate (%)={1-(Average Dry Weight (g) of Plant of Treated Area)/(Average Dry Weight (g) of Plant of Untreated Area)}×100 [Math. 1]
(§3) Herbicidal Effect Test by Treatment of Dry Field Farming Soil
(§4) Pots with a size of 36 cm^2 were filled with a dry field farming soil (alluvium). The soil of the top layer of 1 cm and seeds of weeds, namely southern crabgrass, Echinochloa crus-galli, Chenopodium album and Amaranthus viridis, 20 seeds each, were evenly mixed, and the top layer was gently pressed. Emulsions prepared using the compounds in Table 5 below according to Formulation Example 5 were diluted with water one day after seeding, and the water-diluted agent solutions were sprayed to the soil surfaces at a ratio of 100 liters per 10 ares. The converted amount of the applied active ingredient corresponded to 120 g per 10 ares. The herbicidal effects were evaluated by the same standard as that in Test Example 1 on 14 days after the treatment with the agents. […] The compound numbers in Table 5 are the same as those in Table 1 and Table 2 above.

[5] = tested on: Chenopodium album; assay: as above; details: 120 g/10a active ingredient, evaluated 14 days after treatment
Method: as §2, §3, §4

[6] = tested on: Echinochloa crus-galli; assay: as above; details: 120 g/10a active ingredient, evaluated 14 days after treatment
Method: as §2, §3, §4

[7] = tested on: southern crabgrass; assay: as above; details: 120 g/10a active ingredient, evaluated 14 days after treatment
Method: as §2, §3, §4

[8] = tested on: broad leaf weeds (Lindernia pyxidaria and Monochoria vaginalis); assay: Test Example 2: herbicidal effect test by treatment during growing period in paddy rice cultivation (seven days after seeding); details: for Herbicidal rate (%) Lindernia pyxidaria / Herbicidal rate (%) Monochoria vaginalis: 120 g/10a active ingredient, assessed 14 days after treatment, dry weight vs untreated area
Summary of the method: (§5)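 Sow 30 seeds per species (0–1 cm) into puddled, fertilized paddy soil; keep flooded ~3 cm in greenhouse. Day 7 after seeding: drop water-diluted emulsion, 120 g a.i./10 ares. Harvest 14 d post-treatment; compare dry weight with untreated pots (duplicate).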

[9] = tested on: Echinochloa crus-galli; assay: as above; details: for Herbicidal rate (%) Echinochloa crus-galli: 120 g/10a active ingredient, assessed 14 days after treatment, dry weight vs untreated area
Summary of the method: as §5

[10] = tested on: Scirpus juncoides; assay: as above; details: for Herbicidal rate (%) Scirpus juncoides: 120 g/10a active ingredient, assessed 14 days after treatment, dry weight vs untreated area
Summary of the method: as §5

[11] = Lindernia pyxidaria, 120 g/10a active ingredient, dry weight vs untreated area, 14 days after treatment
[12] = Monochoria vaginalis, 120 g/10a active ingredient, dry weight vs untreated area, 14 days after treatment
[13] = 120 g/10a active ingredient, dry weight vs untreated area, 14 days after treatment
[14] = Lindernia pyxidaria, 120 g/10a active ingredient, 14 days after treatment, dry weight vs untreated area
[15] = Monochoria vaginalis, 120 g/10a active ingredient, 14 days after treatment, dry weight vs untreated area
[16] = 120 g/10a active ingredient, 14 days after treatment, dry weight vs untreated area
[17] = 120 g/10a, rated 14 days after treatment, paddy soil pots

Row | Compound | Herbicidal rate (%) Lindernia pyxidaria [1, 11] [%] | Herbicidal rate (%) Monochoria vaginalis [1, 12] [%] | Herbicidal rate (%) Echinochloa crus-galli [2, 13] [%] | Herbicidal rate (%) Scirpus juncoides [3, 13] [%] | herbicidal rate, Amaranthus viridis [4] [%] | herbicidal rate, Chenopodium album [5] [%] | herbicidal rate, Echinochloa crus-galli [6] [%] | herbicidal rate, southern crabgrass [7] [%] | Herbicidal rate (%) Lindernia pyxidaria ([8]; Lindernia pyxidaria) [%] | Herbicidal rate (%) Monochoria vaginalis ([8]; Monochoria vaginalis) [%] | Herbicidal rate (%) Echinochloa crus-galli [9] [%] | Herbicidal rate (%) Scirpus juncoides [10] [%] | Herbicidal rate (%) Lindernia pyxidaria [1, 14] [%] | Herbicidal rate (%) Monochoria vaginalis [1, 15] [%] | Herbicidal rate (%) Echinochloa crus-galli [2, 16] [%] | Herbicidal rate (%) Scirpus juncoides [3, 16] [%] | herbicidal rate, Lindernia pyxidaria ([8]; Lindernia pyxidaria, 120 g/10a, rated 14 days after treatment, paddy soil pots) [%] | herbicidal rate, Monochoria vaginalis ([8]; Monochoria vaginalis, 120 g/10a, rated 14 days after treatment, paddy soil pots) [%] | herbicidal rate, Echinochloa crus-galli [9, 17] [%] | herbicidal rate, Scirpus juncoides [10, 17] [%]
1 | CCC(C)Cn1oc(=O)c(Cc2ccccc2N(S(=O)(=O)C(F)(F)F)S(=O)(=O)C(F)(F)F)c1C (stereo not drawn) [Compound 1-972] | 100 | 100 | 100 | 100 | 100 | 100 | 90 | 90 | 80 | 100 | 100 | 90 |  |  |  |  |  |  |  | 
2 | Cc1c(Cc2ccccc2N(S(=O)(=O)C(F)(F)F)S(=O)(=O)C(F)(F)F)c(=O)on1Cc1ccccc1 [Compound 1-1011] | 90 | 90 | 90 | 90 | 40 | 40 | 90 | 80 | 90 | 90 | 40 | 90 |  |  |  |  |  |  |  | 
3 | Cc1c(Cc2ccccc2N(S(=O)(=O)C(F)(F)F)S(=O)(=O)C(F)(F)F)c(=O)on1CCCc1ccccc1 [Compound 1-1048] | 80 | 60 | 90 | 80 | 40 | 40 | 40 | 0 | 60 | 60 | 90 | 40 |  |  |  |  |  |  |  | 
4 | Cc1c(Cc2ccccc2N(S(=O)(=O)C(F)(F)F)S(=O)(=O)C(F)(F)F)c(=O)on1C1CCc2ccccc21 (stereo not drawn) [Compound 1-1049] |  |  |  |  | 50 | 50 | 90 | 80 | 60 | 70 | 80 | 70 | 90 | 80 | 90 | 90 |  |  |  | 
5 | Cc1c(Cc2ccccc2N(S(=O)(=O)C(F)(F)F)S(=O)(=O)C(F)(F)F)c(=O)on1CC1(C)CO1 (stereo not drawn) [Compound 1-1051] |  |  |  |  | 80 | 60 | 80 | 80 | 40 | 80 | 90 | 90 | 60 | 80 | 80 | 100 |  |  |  | 
6 | Cc1c(Cc2ccccc2N(S(=O)(=O)C(F)(F)F)S(=O)(=O)C(F)(F)F)c(=O)on1S(=O)(=O)C(C)C [Compound 1-1064] |  |  |  |  | 80 | 80 | 100 | 60 |  |  |  |  | 90 | 90 | 90 | 90 | 50 | 80 | 70 | 90
